Experimental data reported in the supplement of paper PMC10307832.

Legend:
Experiment in all cases: relative viability (nuclei count vs DMSO), 5 days (fraction); higher = more cells survive
Sulindac + Lapatinib = compound: CC1=C(CC(=O)O)c2cc(F)ccc2/C1=C\c1ccc([S+](C)[O-])cc1 [Sulindac] + CS(=O)(=O)CCNCc1ccc(-c2ccc3ncnc(Nc4ccc(OCc5cccc(F)c5)c(Cl)c4)c3c2)o1 [Lapatinib] (partner 2 µM)
Method in brief: (§1)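 The day after seeding in 1536-well plates, lung cancer cell lines were treated by pin tool with a single drug, or with a fixed anchor-drug dose together with five library-drug doses (not always all listed) in √10 steps. After 5 days, a combined fix-and-stain solution (final 0.05% Triton X-100, 1% formaldehyde, 1 ug/ml Hoechst) was added. Nuclei counted on 4× images gave relative viability as treated counts over vehicle counts, reported as the median of duplicate plates.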

[1] = compound: O=c1[nH]cc(F)c(=O)[nH]1 [5-Fluorouracil] + CC(=O)Nc1cccc(-n2c(=O)n(C3CC3)c(=O)c3c(Nc4ccc(I)cc4F)n(C)c(=O)c(C)c32)c1 [Trametinib] (partner 0.02 µM)
Method in brief: as §1

[2] = compound: O=c1[nH]cc(F)c(=O)[nH]1 [5-Fluorouracil] + O=C(c1cc(Cc2n[nH]c(=O)c3ccccc23)ccc1F)N1CCN(C(=O)C2CC2)CC1 [Olaparib] (partner 8 µM)
Method in brief: as §1

Sulindac + AZD7762 = compound: CC1=C(CC(=O)O)c2cc(F)ccc2/C1=C\c1ccc([S+](C)[O-])cc1 [Sulindac] + NC(=O)Nc1cc(-c2cccc(F)c2)sc1C(=O)N[C@H]1CCCNC1 [AZD7762] (partner 0.2 µM)
Method in brief: as §1

Cell Line	relative viability (Sulindac + Lapatinib; first compound 0.08 µM)	relative viability (Sulindac + Lapatinib; first compound 0.253 µM)	relative viability (Sulindac + Lapatinib; first compound 0.8 µM)	relative viability (Sulindac + Lapatinib; first compound 2.53 µM)	relative viability (Sulindac + Lapatinib; first compound 8 µM)	relative viability ([1]; first compound 0.02 µM)	relative viability ([1]; first compound 0.2 µM)	relative viability ([1]; first compound 0.6325 µM)	relative viability ([1]; first compound 2 µM)	relative viability ([2]; first compound 0.02 µM)	relative viability ([2]; first compound 0.6325 µM)	relative viability ([2]; first compound 2 µM)	relative viability (Sulindac + AZD7762; first compound 0.08 µM)	relative viability (Sulindac + AZD7762; first compound 0.253 µM)	relative viability (Sulindac + AZD7762; first compound 0.8 µM)	relative viability (Sulindac + AZD7762; first compound 2.53 µM)	relative viability (Sulindac + AZD7762; first compound 8 µM)	relative viability ([2]; first compound 0.2 µM)
201T	1.05	0.974	1.04	0.997	1.07	0.715	0.563	0.305	0.284	0.82	0.252	0.249	0.647	0.628	0.868	0.661	0.596	
A549	1.12	0.975	0.995	1.04	1.22					0.298	0.202	0.0825						0.501
A-427	1.23	1.02	1.07	1.05	1.1	0.747	0.773	0.58	0.382	0.68	0.674	0.385	0.742	0.692	1.01	0.727	0.808	0.521
ABC-1		1.23	1.13	1.28	1.24					0.782	1	0.51	1.16		0.636	0.682	0.751	0.716
BEN	0.785	0.714	0.695	0.754	0.995	0.934	0.93	0.946	0.938	1.01	0.907	0.913	0.728	0.727	0.598	0.604	0.776	0.851
CAL-12T	0.697	0.64	0.583	0.545	0.806	0.424	0.393	0.33	0.299	0.701	0.638	0.365	0.586	0.717	0.497	0.622	0.708	0.634
COR-L23	1.58	1.16		0.976	1.12	0.585	0.631	0.359	0.275	0.36	0.273	0.18						0.312
COR-L 105	0.348	0.34	0.408	0.324	0.412	0.458	0.505	0.408	0.393	0.713	0.58	0.512						0.792
Calu-6	1.29	1.04	1.09	1.25	1.3					0.535	0.519	0.347						0.557
ChaGo-K-1						0.934	0.796	0.691	0.499	0.36	0.321	0.25	0.949	0.878	0.803	0.932	0.906	0.393
EBC-1	0.213	0.211		0.237	0.218					0.769	0.759	0.44						0.772
EKVX	0.193	0.186	0.21	0.18	0.111	0.326		0.187	0.148	0.667		0.169	0.755	0.902	0.571	0.763	0.809	0.277
EMC-BAC-2	0.945	0.973	0.682	0.88	0.93	0.934	1.05	0.914	0.879	0.479	0.45	0.469	1.22	1.2	0.849	1.04	1.35	0.53
EPLC-272H	0.987		0.602	0.78	1.24	0.263	0.262	0.242	0.198	0.737	0.32	0.21	0.432		0.53	0.155	0.263	0.67
H3255	0.206	0.217	0.42	0.21	0.276	0.664	0.716	0.687	0.567	0.573	0.578	0.556	0.884	0.931	0.627	0.867	1.11	0.578
HARA	0.989	0.835		0.858	0.893	0.852	0.625	0.856	0.644	0.775	0.623	0.845	0.339	0.392	0.288	0.294	0.307	1.01
HCC-15	1.06	0.87	0.763	0.801	0.914	0.321	0.365	0.34	0.284	0.741	0.521	0.33	1.11	1.44	0.883	1.23	1.16	0.707
HCC-44	1.14	1.05	0.919	1.05	1.15	1.09	1	0.692	0.599	1.03	0.979	0.651	1.04	1.01	1.09	0.979	0.942	1.02
HCC-78	0.868	0.623	0.28	0.569	0.944	1.01	0.717	0.435	0.297	0.755	0.331	0.28	0.614	0.6	0.557	0.599	0.722	0.599
HCC-366	1.19	1.13	0.765	1.06	1.49	0.332	0.238	0.14	0.0725	0.387	0.199	0.0788	0.284	0.257		0.359	0.265	0.397
HCC-827	0.247	0.183	0.192	0.181	0.184	0.407	0.544	0.425	0.276	0.336	0.552	0.304	0.218	0.222	0.198	0.204	0.244	0.647
HOP-62	1.19	1.24	0.929	1.15	1.19	0.362	0.417	0.392	0.357	0.39	0.405	0.387	0.577	0.565	0.556	0.717	0.953	0.449
IA-LM	0.724	0.8	0.68	0.782	0.798					1	0.285	0.193						0.576

Cell Line	relative viability (Sulindac + Lapatinib; first compound 0.08 µM)	relative viability (Sulindac + Lapatinib; first compound 0.253 µM)	relative viability (Sulindac + Lapatinib; first compound 0.8 µM)	relative viability (Sulindac + Lapatinib; first compound 2.53 µM)	relative viability (Sulindac + Lapatinib; first compound 8 µM)	relative viability ([1]; first compound 0.02 µM)	relative viability ([1]; first compound 0.2 µM)	relative viability ([1]; first compound 0.6325 µM)	relative viability ([1]; first compound 2 µM)	relative viability ([2]; first compound 0.02 µM)	relative viability ([2]; first compound 0.6325 µM)	relative viability ([2]; first compound 2 µM)	relative viability (Sulindac + AZD7762; first compound 0.08 µM)	relative viability (Sulindac + AZD7762; first compound 0.253 µM)	relative viability (Sulindac + AZD7762; first compound 0.8 µM)	relative viability (Sulindac + AZD7762; first compound 2.53 µM)	relative viability (Sulindac + AZD7762; first compound 8 µM)	relative viability ([2]; first compound 0.2 µM)
LC-2-ad	1.1	1.04	0.893	1.02	1.02	1.02	0.894	0.552	0.349	0.712	0.513	0.348	0.972	0.906	0.701	0.815	0.944	0.682
LCLC-97TM1	0.962	1.45	0.83		1.37	0.181	0.203	0.209	0.188	0.334	0.257	0.232	0.274	0.377	0.171		0.232	0.363
LCLC-103H						0.733	0.671	0.598	0.566	0.801	0.559	0.46	0.88	0.799	0.708	0.786	0.91	0.741
LK-2	1.05	0.835			1.15	0.713	0.769	0.633	0.453	0.589	0.529	0.428	0.456	0.469	0.318	0.465	0.414	0.814
LOU-NH91	0.899	0.72	0.682	0.669	0.831	0.814	0.871	0.818	0.596	0.92	0.74	0.314	0.781	0.809	0.627	0.742	0.817	0.853
NCI-H441						0.567	0.499	0.402	0.38	0.514	0.292	0.269	1.24	1.03	0.798	1.18	1.38	0.438
NCI-H520	0.956	0.944	0.793	0.755	1.14	0.624	0.666	0.439	0.311	0.294	0.33	0.258						0.366
NCI-H522						0.76	0.681	0.724	0.638	0.547	0.647	0.621	0.753	0.921	0.962	0.693	0.657	0.618
NCI-H661	0.512	0.413	0.474	0.564	0.557	0.63	0.67	0.481	0.567	0.776	0.808	0.693						0.8
NCI-H1299	1.06	0.927	0.96	0.942	1.06					1.06	0.917	0.655						1.02
NCI-H1563	0.992	0.901	0.884	0.879	0.933													
NCI-H1648						0.467	0.405	0.466	0.306	0.632	0.638	0.332	0.682	0.746		0.7	0.768	0.796
NCI-H1650	1.01	0.775	0.625	0.824	0.944	0.745	0.532	0.33	0.254	0.797	0.381	0.229						0.754
NCI-H1703	1.37	1.37	0.97	1.25	1.08					0.337	0.365	0.255	0.129	0.14		0.111	0.17	0.614
NCI-H2009	1.02	0.949	0.87	0.946	1.05	0.255	0.271	0.247	0.215	0.794	0.655	0.466						0.668
NCI-H2023	0.708	0.733	0.741	0.774	1.09	0.472	0.21	0.133	0.0877	0.517	0.111	0.0832						0.196
NCI-H2228	1.4	1.3	0.575	1	0.917	0.628	0.685	0.441	0.326	0.998	0.44	0.33						0.671
NCI-H2342						0.932	0.762	0.843	0.662	0.419	0.442	0.39	0.76	0.495	0.441	0.491	0.5	0.529
SK-LU-1	0.981	0.918		0.839	0.9	0.458	0.598	0.435	0.464	0.511	0.557	0.407						0.551
SK-MES-1	0.517	0.497	0.362	0.372	0.486	0.496	0.552	0.381	0.352	0.656	0.296	0.264						0.32
SW 900						0.747	0.735	0.59	0.558	0.751	0.811	0.522	0.538	0.677			0.643	0.794
SW 1573	1.11	1.3	1.02	1.1	1.28	0.576	0.631	0.497	0.306	0.477	0.416	0.262						0.625
